Patent US20240025862A1, “SUBSTITUTED N-PHENYLURACILS AND SALTS THEREOF, AND USE THEREOF AS HERBICIDAL ACTIVE SUBSTANCES” (Bayer Aktiengesellschaft, priority 2020, published 2024)

Key:
Type in all cases: in vivo
[1] = tested on: Abutilon theophrasti (ABUTH); assay: Post-emergence herbicidal action, greenhouse pot test; settings: Abutilon theophrasti, 504 h, rated visually after about 3 weeks vs untreated controls, 100% = plants have died
Procedure, shortened: (§1)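 Activity was scored by eye about 3 weeks after treatment against untreated plants, where 100% means dead plants and 0% means no difference. Plants at the one-leaf stage received a foliar spray of WP or EC formulations in water plus 0.5% additive (600 l/ha, up to 20 g/ha). Plants were grown in sandy loam pots in a greenhouse for 2–3 weeks before spraying.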

[2] = tested on: Amaranthus retroflexus (AMARE); assay: as above; settings: Amaranthus retroflexus, 504 h, rated visually after about 3 weeks vs untreated controls, 100% = plants have died
Procedure, shortened: as §1

[3] = tested on: Avena fatua (AVEFA); assay: as above; settings: Avena fatua, 504 h, 20 g/ha, rated visually after about 3 weeks vs untreated controls, 100% = plants have died, read-out: Post-emergence action at 20 g/ha against AVEFA in %
Procedure, shortened: as §1

[4] = tested on: Lolium rigidum (LOLRI); assay: as above; settings: Lolium rigidum, 504 h, dosage 20 g/ha, read-out: Post-emergence action against LOLRI in %
Procedure, shortened: as §1

[5] = tested on: Pharbitis purpurea (PHBPU); assay: as above; settings: Ipomoea purpurea, 504 h, read-out: Post-emergence action against PHBPU in %
Procedure, shortened: as §1

[6] = tested on: Polygonum convolvulus (POLCO); assay: as above; settings: Fallopia convolvulus, 504 h, read-out: Post-emergence action against POLCO in %
Procedure, shortened: as §1

[7] = tested on: Veronica persica (VERPE); assay: as above; settings: Veronica persica, 504 h, read-out: Post-emergence action against VERPE
Procedure, shortened: as §1

[8] = tested on: Viola tricolor (VIOTR); assay: as above; settings: Viola tricolor, 504 h, read-out: Post-emergence action against VIOTR
Procedure, shortened: as §1

[9] = tested on: Triticum aestivum (TRZAS); assay: Post-emergence crop plant compatibility, greenhouse pot test; settings: 1.25 g/ha, vs untreated controls
Procedure, shortened: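 Greenhouse pot test; post-emergence foliar spray at one-leaf stage, WP or EC in water + 0.5% additive, 600 l/ha. Visual rating after ~3 wk, % relative to untreated (0–100%).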

[10] = tested on: Abutilon theophrasti (ABUTH); assay: Pre-emergence herbicidal action, greenhouse pot test; settings: scored after about 3 weeks
Source text: (§2) Seeds of monocotyledonous and dicotyledonous weed plants and crop plants were placed in plastic or organic planting pots and covered with soil. The compounds of the invention, formulated in the form of wettable powders (WP) or as emulsion concentrates (EC), were then applied to the surface of the covering soil as aqueous suspension or emulsion with addition of 0.5% additive at a water application rate equivalent to 600 l/ha (converted). After the treatment, the pots were placed in a greenhouse and kept under good growth conditions for the test plants. After about 3 weeks, the effect of the preparations was scored visually in comparison with untreated controls as percentages. For example, 100% activity=the plants have died, 0% activity=like control plants.
(§3) Tables B1 to B10 below show the effects of selected compounds of the general formula (I) according to Tables I.1 to I.33 on various harmful plants and at an application rate corresponding to 80 g/ha and less, which were obtained by the experimental method specified above. The appendices “a”, “b” and “c” give differentiation by different dosage with otherwise the same harmful plants tested.

[11] = tested on: Alopecurus myosuroides (ALOMY); assay: as above; settings: scored after about 3 weeks
Source text: as §2, §3

[12] = tested on: Amaranthus retroflexus (AMARE); assay: as above; settings: scored after about 3 weeks
Source text: as §2, §3

[13] = tested on: Avena fatua (AVEFA); assay: as above; settings: 80 g/ha, scored after about 3 weeks
Source text: as §2, §3

[14] = tested on: Digitaria sanguinalis (DIGSA); assay: as above; settings: scored after about 3 weeks
Source text: as §2, §3

[15] = tested on: Echinochloa crus-galli (ECHCG); assay: as above; settings: 80 g/ha, scored after about 3 weeks
Source text: as §2, §3

[16] = tested on: Lolium rigidum (LOLRI); assay: as above; settings: 80 g/ha, scored after about 3 weeks
Source text: as §2, §3

[17] = tested on: Matricaria inodora (MATIN); assay: as above; settings: scored after about 3 weeks
Source text: as §2, §3

[18] = tested on: Pharbitis purpurea (PHBPU); assay: as above; settings: scored after about 3 weeks
Source text: as §2, §3

[19] = tested on: Veronica persica (VERPE); assay: as above; settings: scored after about 3 weeks
Source text: as §2, §3

[20] = tested on: Zea mays (ZEAMX); assay: Pre-emergence crop plant compatibility, greenhouse pot test; settings: 20 g/ha
Source text: as §2
The observed effects on selected crop plants are reported here in comparison to the untreated controls (values in %).

COCCOC(=O)COc1ccccc1Oc1cc(-n2c(=O)cc(C(F)(F)F)n(C)c2=O)c(F)cc1Cl [I.7-1, 2-Methoxyethyl (2-{2-chloro-4-fluoro-5-[3-methyl-2,6-dioxo-4-(trifluoromethyl)-3,6-dihydropyrimidin-1(2H)-yl]phenoxy}phenoxy)acetate]
80%: pest or weed control at 20 g/ha [3] | pest or weed control at 20 g/ha [4] | pest or weed control at 5 g/ha ([6]; dosage 5 g/ha) | Pre-emergence action against ALOMY in % ([11]; 20 g/ha)
90%: Pre-emergence action against ECHCG in % [15]
20%: Post-emergence action against TRZAS (crop plant compatibility) [9]
0%: Pre-emergence action against ZEAMX in % [20]
100%: pest or weed control at 5 g/ha ([1]; 5 g/ha, read-out: Post-emergence action at 5 g/ha against ABUTH in %) | pest or weed control at 20 g/ha ([1]; 20 g/ha, read-out: Post-emergence action at 20 g/ha against ABUTH in %) | pest or weed control at 1.25 g/ha ([2]; 1.25 g/ha, read-out: Post-emergence action at 1.25 g/ha against AMARE in %) | pest or weed control at 5 g/ha ([2]; 5 g/ha, read-out: Post-emergence action at 5 g/ha against AMARE in %) | pest or weed control at 20 g/ha ([2]; 20 g/ha, read-out: Post-emergence action at 20 g/ha against AMARE in %) | pest or weed control at 1.25 g/ha ([5]; dosage 1.25 g/ha) | pest or weed control at 5 g/ha ([5]; dosage 5 g/ha) | pest or weed control at 20 g/ha ([5]; dosage 20 g/ha) | pest or weed control at 20 g/ha ([6]; dosage 20 g/ha) | pest or weed control at 1.25 g/ha ([7]; 1.25 g/ha) | pest or weed control at 5 g/ha ([7]; 5 g/ha) | pest or weed control at 20 g/ha ([7]; 20 g/ha) | pest or weed control at 1.25 g/ha ([8]; 1.25 g/ha) | pest or weed control at 5 g/ha ([8]; 5 g/ha) | pest or weed control at 20 g/ha ([8]; 20 g/ha) | Pre-emergence action against ABUTH in % ([10]; 20 g/ha) | Pre-emergence action against ABUTH in % ([10]; 80 g/ha) | Pre-emergence action against ALOMY in % ([11]; 80 g/ha) | Pre-emergence action against AMARE in % ([12]; 20 g/ha) | Pre-emergence action against AMARE in % ([12]; 80 g/ha) | Pre-emergence action against AVEFA in % [13] | Pre-emergence action against DIGSA in % ([14]; 20 g/ha) | Pre-emergence action against DIGSA in % ([14]; 80 g/ha) | Pre-emergence action against LOLRI in % [16] | Pre-emergence action against MATIN in % ([17]; 20 g/ha) | Pre-emergence action against MATIN in % ([17]; 80 g/ha) | Pre-emergence action against PHBPU in % ([18]; 20 g/ha) | Pre-emergence action against PHBPU in % ([18]; 80 g/ha) | Pre-emergence action against VERPE in % ([19]; 20 g/ha) | Pre-emergence action against VERPE in % ([19]; 80 g/ha)
